According to BindingDB's records for patent US12168664 (Columbia University, 2024):

Target: Retinol-binding protein 4 (Homo sapiens, UniProt P02753)
Assay: Scintillation Proximity RBP4 Binding Assay
Description: Untagged human RBP4 purified from the urine of tubular proteinuria patients was purchased from Fitzgerald Industries International. It was biotinylated using the EZ-Link Sulfo-NHS-LC-Biotinylation kit from Pierce following the manufacturer's recommendations. […] Nonspecific binding was determined in the presence of 20 μM of unlabeled retinol. The reaction mix was assembled in the dark under dim red light. The plates were sealed with clear tape (TopSeal-A: 96-well microplate, PerkinElmer), wrapped in the aluminum foil, and allowed to equilibrate 6 hours at room temperature followed by overnight incubation at +4° C. Radiocounts were measured using a TopCount NXT counter (Packard Instrument Company).

Row | IC50 [µM] | SMILES
1 | > 3 | O=C(c1c[nH]c2cnccc12)N1C[C@H]2C[C@@H](c3ccccc3C(F)(F)F)C[C@H]2C1 [US12168664, Compound 8a]
2 | > 3 | O=C(c1c[nH]c2ccncc12)N1C[C@H]2C[C@@H](c3ccccc3C(F)(F)F)C[C@H]2C1 [US12168664, Compound 8b]
